Some results are limits rather than exact numbers.

By IC50 is commonly meant the concentration at which inhibition is half-maximal. As a reminder, the Kd is the free concentration of one partner at which half of the binding sites on the other are occupied at equilibrium, for simple one-to-one binding. A higher Kd goes with a looser complex.

One test addresses CDK2 (Homo sapiens, UniProt P24941). On the set-up: method as in earlier work. The settings on record: Table S1; cited from earlier work.
Another test deals with T1, AMPK-alpha1 (Homo sapiens, UniProt Q13131).
T1 construct: purchased DiscoveRx KINOMEscan (Ambit Biosciences)
Description: KINOMEscan panel screen. In kind it is binding. The settings on record: read-out: Percent Control(%).

In another test the target is T2, p38-alpha (Homo sapiens, UniProt Q16539).
T2 construct: purchased DiscoveRx KINOMEscan (Ambit Biosciences)
Description: KINOMEscan panel screen. In kind it is binding. Conditions: read-out: Percent Control(%).

A further test concerns the target T3, RIPK1 (Homo sapiens, UniProt Q13546).
T3 construct: purchased DiscoveRx KINOMEscan (Ambit Biosciences)
Description: KINOMEscan panel screen. Conditions: read-out: Percent Control(%). It counts as binding.

In a further test the target is T4, RET(M918T) (Homo sapiens, UniProt P07949, M918T).
T4 construct: purchased DiscoveRx KINOMEscan (Ambit Biosciences)
Description: KINOMEscan panel screen. It counts as binding. Conditions: read-out: Percent Control(%).

Test [1] deals with β-catenin target genes in primary AML cells. The test is described as follows: Real-time qPCR of β-catenin target genes in primary AML cells. In kind it is cell-based, human. An excerpt: To confirm the Wnt/β-catenin inhibition effect of SKLB-677, we examined the protein levels of total β-catenin and non-phospho-β-catenin (active β-catenin); the non-phospho β-catenin other than the phosphorylated β-catenin enters the cell nucleus and plays the gene regulation function. […] We further examined the expressions of β-catenin target genes MYC, CCND1, and NKD1 by real-time qPCR. […] Finally, the real-time qPCR assays were used again to inspect the influence of SKLB-677 on Wnt/β-catenin signaling in the primary AML cells.
Total RNA of cell samples and tumor samples was extracted using RNAsimple total RNA kit (TIANGEN) according to the manufacturer’s instructions. cDNA was generated using the iScript^TMcDNA Synthesis Kit (Bio-Rad), and the RT-PCR reactions were performed using SsoAdvanced SYBR Green Supermix (Bio-Rad). The reaction consisted of 40 cycles of denaturation at 95 °C for 5 s and annealing/extension for 30s at 60 °C. The primer sequences are listed in Supplementary Table S7.
Background: Quantitative PCR measures a nucleic acid by following its amplification.

For another test, the target named is T5, MYO3A (Homo sapiens, UniProt Q8NEV4).
T5 construct: purchased DiscoveRx KINOMEscan (Ambit Biosciences)
The test is described as follows: KINOMEscan panel screen. Conditions: read-out: Percent Control(%). It counts as binding.

The target in test [2] is T6, JAK1(JH1domain-catalytic) (Homo sapiens, UniProt P23458).
T6 construct: JAK1(JH1domain-catalytic); purchased DiscoveRx KINOMEscan (Ambit Biosciences)
The test is described as follows: KINOMEscan panel screen. It counts as binding. The settings on record: read-out: Percent Control(%).

Another test deals with T7, ERK3 (Homo sapiens, UniProt Q16659).
T7 construct: purchased DiscoveRx KINOMEscan (Ambit Biosciences)
The test is described as follows: KINOMEscan panel screen. In kind it is binding. Conditions: read-out: Percent Control(%).

A further test has as its target T8, CSNK1A1L (Homo sapiens, UniProt Q8N752).
T8 construct: purchased DiscoveRx KINOMEscan (Ambit Biosciences)
Description: KINOMEscan panel screen. It counts as binding. Conditions: read-out: Percent Control(%).

A further test deals with T9, KIT(L576P) (Homo sapiens, UniProt P10721, L576P).
T9 construct: purchased DiscoveRx KINOMEscan (Ambit Biosciences)
Description: KINOMEscan panel screen. The settings on record: read-out: Percent Control(%). In kind it is binding.

A further test addresses T10, YSK1 (Homo sapiens, UniProt O00506).
T10 construct: purchased DiscoveRx KINOMEscan (Ambit Biosciences)
Description: KINOMEscan panel screen. In kind it is binding. Conditions: read-out: Percent Control(%).

The next test deals with T11, EGFR(L858R) (Homo sapiens, UniProt P00533, L858R).
T11 construct: purchased DiscoveRx KINOMEscan (Ambit Biosciences)
The test is described as follows: KINOMEscan panel screen. In kind it is binding. The settings on record: read-out: Percent Control(%).

The target in a further test is T12, CAMK2D (Homo sapiens, UniProt Q13557).
T12 construct: purchased DiscoveRx KINOMEscan (Ambit Biosciences)
The test is described as follows: KINOMEscan panel screen. It counts as binding. Conditions: read-out: Percent Control(%).

The target of another test is FLT3-ITD (Homo sapiens, UniProt P36888, ITD). Description: biochemical. It counts as binding.
Another test has as its target T13, MEK5 (Homo sapiens, UniProt Q13163).
T13 construct: purchased DiscoveRx KINOMEscan (Ambit Biosciences)
Description: KINOMEscan panel screen. In kind it is binding. The settings on record: read-out: Percent Control(%).

The target in test [3] is T14, RSK1(Kin.Dom.2-C-terminal) (Homo sapiens, UniProt Q15418).
T14 construct: RSK1(Kin.Dom.2-C-terminal); purchased DiscoveRx KINOMEscan (Ambit Biosciences)
The test is described as follows: KINOMEscan panel screen. In kind it is binding. Conditions: read-out: Percent Control(%).

The target of another test is T15, RET (Homo sapiens, UniProt P07949).
T15 construct: purchased DiscoveRx KINOMEscan (Ambit Biosciences)
The test is described as follows: KINOMEscan panel screen. Conditions: read-out: Percent Control(%). In kind it is binding.

Another test concerns PC-9. Description: MTT cell viability assay. Conditions: Homo sapiens, PC-9, 72 h. A general note: Formazan colour is commonly taken as a measure of viable cells.
The target of a further test is T16, SgK110 (Homo sapiens, UniProt P0C264).
T16 construct: purchased DiscoveRx KINOMEscan (Ambit Biosciences)
The test is described as follows: KINOMEscan panel screen. It counts as binding. Conditions: read-out: Percent Control(%).

For a further test, the target named is T17, PAK3 (Homo sapiens, UniProt O75914).
T17 construct: purchased DiscoveRx KINOMEscan (Ambit Biosciences)
The test is described as follows: KINOMEscan panel screen. Conditions: read-out: Percent Control(%). It counts as binding.

For the next test, the target named is T18, LTK (Homo sapiens, UniProt P29376).
T18 construct: purchased DiscoveRx KINOMEscan (Ambit Biosciences)
The test is described as follows: KINOMEscan panel screen. It counts as binding. The settings on record: read-out: Percent Control(%).

The target of the next test is T19, DMPK (Homo sapiens, UniProt Q09013).
T19 construct: purchased DiscoveRx KINOMEscan (Ambit Biosciences)
T19 sequence (Q09013 1-629): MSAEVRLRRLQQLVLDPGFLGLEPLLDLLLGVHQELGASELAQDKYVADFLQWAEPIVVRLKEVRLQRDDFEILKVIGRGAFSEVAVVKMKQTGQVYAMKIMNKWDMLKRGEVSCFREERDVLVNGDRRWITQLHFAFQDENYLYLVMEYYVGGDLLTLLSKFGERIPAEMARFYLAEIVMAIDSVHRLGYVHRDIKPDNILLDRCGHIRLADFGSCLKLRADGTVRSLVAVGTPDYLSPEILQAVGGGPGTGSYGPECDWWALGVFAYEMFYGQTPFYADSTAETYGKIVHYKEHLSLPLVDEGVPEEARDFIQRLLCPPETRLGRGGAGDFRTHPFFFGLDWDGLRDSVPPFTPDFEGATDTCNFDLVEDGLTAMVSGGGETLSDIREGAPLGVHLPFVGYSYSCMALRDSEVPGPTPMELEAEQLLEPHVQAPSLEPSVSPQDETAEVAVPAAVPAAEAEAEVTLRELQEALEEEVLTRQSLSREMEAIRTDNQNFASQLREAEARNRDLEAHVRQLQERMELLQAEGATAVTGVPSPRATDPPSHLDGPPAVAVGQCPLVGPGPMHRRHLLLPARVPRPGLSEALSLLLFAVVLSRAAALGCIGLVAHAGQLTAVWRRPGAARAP
The test is described as follows: KINOMEscan panel screen. In kind it is binding. The settings on record: read-out: Percent Control(%).

A further test deals with T20, FGFR3(G697C) (Homo sapiens, UniProt P22607, G697C).
T20 construct: purchased DiscoveRx KINOMEscan (Ambit Biosciences)
Description: KINOMEscan panel screen. The settings on record: read-out: Percent Control(%). In kind it is binding.

A further test has as its target T21, WEE1 (Homo sapiens, UniProt P30291).
T21 construct: purchased DiscoveRx KINOMEscan (Ambit Biosciences)
Description: KINOMEscan panel screen. In kind it is binding. Conditions: read-out: Percent Control(%).

A further test concerns the target T22, PIK3CA(E545A) (Homo sapiens, UniProt P42336, E545A).
T22 construct: purchased DiscoveRx KINOMEscan (Ambit Biosciences)
Description: KINOMEscan panel screen. In kind it is binding. Conditions: read-out: Percent Control(%).

Test [4] deals with T23, TYK2(JH1domain-catalytic) (Homo sapiens, UniProt P29597).
T23 construct: TYK2(JH1domain-catalytic); purchased DiscoveRx KINOMEscan (Ambit Biosciences)
The test is described as follows: KINOMEscan panel screen. In kind it is binding. The settings on record: read-out: Percent Control(%).

T9 sequence (P10721 546-976 L576P limits assumed): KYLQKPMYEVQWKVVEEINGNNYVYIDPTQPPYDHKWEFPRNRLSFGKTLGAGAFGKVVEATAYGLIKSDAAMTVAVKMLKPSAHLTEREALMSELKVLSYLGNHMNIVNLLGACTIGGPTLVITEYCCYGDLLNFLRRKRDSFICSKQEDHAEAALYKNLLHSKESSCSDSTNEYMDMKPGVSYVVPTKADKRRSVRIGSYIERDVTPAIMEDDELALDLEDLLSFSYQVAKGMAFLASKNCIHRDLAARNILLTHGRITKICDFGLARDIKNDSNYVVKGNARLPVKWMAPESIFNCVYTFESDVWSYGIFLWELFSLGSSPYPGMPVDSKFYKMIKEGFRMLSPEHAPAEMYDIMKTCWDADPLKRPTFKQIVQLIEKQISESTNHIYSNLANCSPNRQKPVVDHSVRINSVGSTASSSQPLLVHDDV
T4 sequence (P07949 29-1114 M918T): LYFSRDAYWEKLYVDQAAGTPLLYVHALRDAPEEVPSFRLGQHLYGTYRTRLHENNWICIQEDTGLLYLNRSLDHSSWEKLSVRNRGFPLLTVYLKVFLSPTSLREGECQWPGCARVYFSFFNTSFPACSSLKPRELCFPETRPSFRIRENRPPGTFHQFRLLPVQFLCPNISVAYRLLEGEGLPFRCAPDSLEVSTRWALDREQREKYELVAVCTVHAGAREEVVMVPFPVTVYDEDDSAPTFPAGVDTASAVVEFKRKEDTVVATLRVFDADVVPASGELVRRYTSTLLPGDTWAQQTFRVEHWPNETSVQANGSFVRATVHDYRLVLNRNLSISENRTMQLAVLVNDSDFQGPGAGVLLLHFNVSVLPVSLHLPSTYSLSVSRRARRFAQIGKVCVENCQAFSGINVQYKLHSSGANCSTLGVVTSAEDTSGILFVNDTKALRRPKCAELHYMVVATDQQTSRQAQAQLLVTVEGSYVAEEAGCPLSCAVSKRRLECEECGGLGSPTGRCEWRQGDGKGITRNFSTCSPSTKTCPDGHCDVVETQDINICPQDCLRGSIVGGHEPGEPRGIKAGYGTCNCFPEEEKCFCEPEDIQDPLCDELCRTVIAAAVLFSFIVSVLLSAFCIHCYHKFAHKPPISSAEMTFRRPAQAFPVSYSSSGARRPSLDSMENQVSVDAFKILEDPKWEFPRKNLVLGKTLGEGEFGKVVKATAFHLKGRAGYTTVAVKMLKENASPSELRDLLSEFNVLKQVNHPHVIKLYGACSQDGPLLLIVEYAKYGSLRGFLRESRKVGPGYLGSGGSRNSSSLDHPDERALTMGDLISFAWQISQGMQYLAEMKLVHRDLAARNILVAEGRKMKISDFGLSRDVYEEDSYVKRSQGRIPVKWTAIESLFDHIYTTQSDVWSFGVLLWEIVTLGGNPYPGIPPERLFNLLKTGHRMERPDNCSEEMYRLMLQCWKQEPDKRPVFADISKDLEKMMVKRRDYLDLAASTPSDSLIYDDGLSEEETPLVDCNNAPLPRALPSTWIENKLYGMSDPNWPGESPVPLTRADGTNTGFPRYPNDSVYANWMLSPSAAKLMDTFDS
T13 sequence (Q13163 whole entry): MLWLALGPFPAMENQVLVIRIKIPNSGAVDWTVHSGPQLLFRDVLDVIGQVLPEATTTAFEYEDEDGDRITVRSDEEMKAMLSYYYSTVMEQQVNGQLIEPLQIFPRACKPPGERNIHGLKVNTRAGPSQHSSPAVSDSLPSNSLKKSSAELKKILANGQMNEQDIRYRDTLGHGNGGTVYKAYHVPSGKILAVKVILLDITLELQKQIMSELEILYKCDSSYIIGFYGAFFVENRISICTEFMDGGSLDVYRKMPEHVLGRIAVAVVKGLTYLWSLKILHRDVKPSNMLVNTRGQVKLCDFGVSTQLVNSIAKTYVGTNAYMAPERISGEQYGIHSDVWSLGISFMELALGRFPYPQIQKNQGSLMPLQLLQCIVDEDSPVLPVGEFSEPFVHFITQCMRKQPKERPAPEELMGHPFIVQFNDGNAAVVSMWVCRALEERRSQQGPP
T7 sequence (Q16659 whole entry): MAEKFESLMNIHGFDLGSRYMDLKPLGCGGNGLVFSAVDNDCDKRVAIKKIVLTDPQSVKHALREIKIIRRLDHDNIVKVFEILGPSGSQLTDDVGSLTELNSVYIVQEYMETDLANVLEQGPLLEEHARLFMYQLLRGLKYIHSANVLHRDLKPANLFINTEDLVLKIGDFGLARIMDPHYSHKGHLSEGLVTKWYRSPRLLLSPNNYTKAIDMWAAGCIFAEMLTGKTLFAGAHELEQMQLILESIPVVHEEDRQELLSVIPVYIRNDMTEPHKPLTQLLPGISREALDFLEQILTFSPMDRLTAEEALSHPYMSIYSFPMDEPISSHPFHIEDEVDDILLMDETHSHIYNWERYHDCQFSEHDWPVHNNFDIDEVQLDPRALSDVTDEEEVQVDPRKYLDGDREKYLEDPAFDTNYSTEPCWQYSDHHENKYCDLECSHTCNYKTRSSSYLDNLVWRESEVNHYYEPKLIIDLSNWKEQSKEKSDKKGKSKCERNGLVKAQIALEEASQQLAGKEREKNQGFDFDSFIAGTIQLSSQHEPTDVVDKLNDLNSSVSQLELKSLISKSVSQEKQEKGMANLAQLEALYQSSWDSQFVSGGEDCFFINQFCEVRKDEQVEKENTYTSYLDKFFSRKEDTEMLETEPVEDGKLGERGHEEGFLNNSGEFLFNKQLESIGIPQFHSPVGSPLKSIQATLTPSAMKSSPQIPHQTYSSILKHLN
T20 sequence (P22607 472-761 G697C limits assumed): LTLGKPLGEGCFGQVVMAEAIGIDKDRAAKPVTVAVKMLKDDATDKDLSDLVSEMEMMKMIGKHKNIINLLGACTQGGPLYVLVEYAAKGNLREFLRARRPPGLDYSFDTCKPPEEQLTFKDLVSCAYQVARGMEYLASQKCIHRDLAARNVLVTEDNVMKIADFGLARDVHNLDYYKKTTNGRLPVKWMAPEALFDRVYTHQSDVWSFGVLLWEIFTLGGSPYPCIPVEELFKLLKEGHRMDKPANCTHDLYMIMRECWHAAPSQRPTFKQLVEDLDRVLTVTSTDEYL
T18 sequence (P29376 17-864): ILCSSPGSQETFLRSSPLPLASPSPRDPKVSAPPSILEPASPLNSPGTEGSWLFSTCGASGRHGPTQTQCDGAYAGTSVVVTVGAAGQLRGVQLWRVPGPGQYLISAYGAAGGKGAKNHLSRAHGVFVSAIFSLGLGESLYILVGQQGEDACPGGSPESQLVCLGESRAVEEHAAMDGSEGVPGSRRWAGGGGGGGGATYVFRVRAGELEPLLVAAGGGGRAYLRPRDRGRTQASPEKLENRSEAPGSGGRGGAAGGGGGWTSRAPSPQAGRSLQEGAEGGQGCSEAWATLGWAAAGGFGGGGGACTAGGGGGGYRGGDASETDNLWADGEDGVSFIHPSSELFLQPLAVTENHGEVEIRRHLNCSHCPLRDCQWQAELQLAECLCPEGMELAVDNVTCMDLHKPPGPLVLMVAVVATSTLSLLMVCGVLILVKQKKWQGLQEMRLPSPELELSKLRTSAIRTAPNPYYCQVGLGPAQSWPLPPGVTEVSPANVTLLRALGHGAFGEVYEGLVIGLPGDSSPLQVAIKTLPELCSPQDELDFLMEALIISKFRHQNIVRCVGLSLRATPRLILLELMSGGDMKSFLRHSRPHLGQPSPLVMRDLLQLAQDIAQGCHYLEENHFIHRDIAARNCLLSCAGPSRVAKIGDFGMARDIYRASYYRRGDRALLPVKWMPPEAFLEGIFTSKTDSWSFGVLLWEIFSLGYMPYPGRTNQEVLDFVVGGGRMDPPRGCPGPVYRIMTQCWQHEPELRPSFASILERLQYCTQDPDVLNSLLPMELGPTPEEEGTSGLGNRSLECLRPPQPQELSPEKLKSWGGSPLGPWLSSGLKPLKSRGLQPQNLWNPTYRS
T16 sequence (P0C264 whole entry): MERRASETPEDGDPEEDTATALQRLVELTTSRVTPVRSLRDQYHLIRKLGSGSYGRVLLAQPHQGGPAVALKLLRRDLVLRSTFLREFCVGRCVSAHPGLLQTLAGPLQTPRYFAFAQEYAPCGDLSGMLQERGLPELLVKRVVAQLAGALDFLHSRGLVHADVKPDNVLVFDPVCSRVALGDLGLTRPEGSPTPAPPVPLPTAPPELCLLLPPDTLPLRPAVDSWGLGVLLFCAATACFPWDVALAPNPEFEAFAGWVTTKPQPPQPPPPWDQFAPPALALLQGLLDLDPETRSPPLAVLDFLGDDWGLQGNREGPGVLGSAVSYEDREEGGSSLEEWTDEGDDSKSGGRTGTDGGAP
T12 sequence (Q13557 whole entry): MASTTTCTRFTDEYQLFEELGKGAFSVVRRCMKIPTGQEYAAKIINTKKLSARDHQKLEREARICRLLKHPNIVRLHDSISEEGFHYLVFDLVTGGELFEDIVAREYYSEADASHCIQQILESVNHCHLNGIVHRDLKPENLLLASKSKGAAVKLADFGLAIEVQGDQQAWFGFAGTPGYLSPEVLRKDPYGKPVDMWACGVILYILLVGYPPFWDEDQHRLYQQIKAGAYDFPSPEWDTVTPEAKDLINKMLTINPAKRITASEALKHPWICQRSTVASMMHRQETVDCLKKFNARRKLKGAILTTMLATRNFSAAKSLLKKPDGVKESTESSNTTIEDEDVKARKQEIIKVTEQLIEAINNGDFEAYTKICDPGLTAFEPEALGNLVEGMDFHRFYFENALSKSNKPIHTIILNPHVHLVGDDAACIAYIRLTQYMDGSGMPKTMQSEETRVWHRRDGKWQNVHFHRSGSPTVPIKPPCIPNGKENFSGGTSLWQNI
T6 sequence (P23458 854-1154 limits assumed): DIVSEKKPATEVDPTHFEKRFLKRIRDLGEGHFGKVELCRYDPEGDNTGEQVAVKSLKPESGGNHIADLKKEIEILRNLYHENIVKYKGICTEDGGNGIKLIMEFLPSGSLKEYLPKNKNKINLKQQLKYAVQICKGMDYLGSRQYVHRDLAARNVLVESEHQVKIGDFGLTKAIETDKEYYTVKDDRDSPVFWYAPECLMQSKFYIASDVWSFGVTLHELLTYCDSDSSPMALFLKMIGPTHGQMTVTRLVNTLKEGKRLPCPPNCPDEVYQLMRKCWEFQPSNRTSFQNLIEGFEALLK

Regarding `O=C(Nc1ccc(Oc2ncnc3[nH]ncc23)cc1)Nc1ccc(Cl)c(C(F)(F)F)c1` [Compound 1, 1-(4-(1H-pyrazolo[3,4-d]pyrimidin-4-yloxy)phenyl)-3-(4-chloro-3-(trifluoromethyl)phenyl)urea], the IC50 on CDK2 was more than 10 µM.
With `CC(C)(C)c1cc(NC(=O)Nc2ccc(Oc3ncnc4[nH]ncc34)c(F)c2)no1` [SKLB-677, 1-(4-(1H-pyrazolo[3,4-d]pyrimidin-4-yloxy)-3-fluorophenyl)-3-(5-tert-butylisoxazol-3-yl)urea], the remaining binding at 10 µM on AMPK-alpha1 turned out to be 3%; at p38-alpha, 0%; on RIPK1, 31%; at RET(M918T), 0%; at MYO3A, 11%; in [2], 12%. For the same compound, the remaining binding at 10 µM at ERK3 turned out to be 79%; at CSNK1A1L, 68%; on KIT(L576P) it was 0%; on YSK1, 35%; at EGFR(L858R), 29%; on CAMK2D it was 100%. Also, the remaining binding at 10 µM at MEK5 is 13%; in test [3], 94%; at RET, 0.05%; on SgK110 it was 100%; at PAK3, 6.4%; at LTK, 1.2%. Further, the remaining binding at 10 µM on DMPK is 100%; on FGFR3(G697C) it was 22%; on WEE1, 64%; at PIK3CA(E545A), 86%; in test [4] it was 44%. For the same compound, the “expression of β-catenin target genes” value in test [1] was “considerably decrease”. In addition, on FLT3-ITD, the Kd is 1.3 nM. Moreover, in the test with PC-9, the 50% inhibitory concentration (IC50) is 8.03 µM.

The values above are taken from paper PMC4620497 (Scientific Reports, 2015).
